Measurements: ChEMBL document CHEMBL3885881, “DrugMatrix”

Species on record: Rattus norvegicus
Test: DrugMatrix - Regimen: Daily Repeat
Assay type: toxicity, organism-based, Sprague-Dawley
Parameters: regimen Daily Repeat, gender Male, age 6-8 weeks
Details: in vivo, po, 0 mg/kg, route oral GAVAGE, dose level Control, […]; for BASOPHIL / EOSINOPHIL / ERYTHROCYTE COUNT / HEMATOCRIT / HEMOGLOBIN / LEUKOCYTE COUNT / LYMPHOCYTE / MEAN CORPUSCULAR HEMOGLOBIN / MEAN CORPUSCULAR HEMOGLOBIN CONCENTRATION / MEAN CORPUSCULAR VOLUME / MONOCYTE / NEUTROPHIL / PLATELET COUNT: tissue Blood; for ALANINE AMINOTRANSFERASE / ALBUMIN / ALKALINE PHOSPHATASE / ASPARTATE AMINOTRANSFERASE / BLOOD UREA NITROGEN / CARBON DIOXIDE / CHLORIDE / CHOLESTEROL / CREATINE PHOSPHOKINASE / CREATININE / GLUCOSE / LACTATE DEHYDROGENASE / LIPASE / PHOSPHORUS / POTASSIUM / SODIUM / TOTAL BILIRUBIN / TOTAL PROTEIN / URIC ACID: tissue Plasma

`c1ccoc1` [FURAN] was tested, and the BASOPHIL (72 h, time 3 day) was 0.55%, the EOSINOPHIL (72 h, time 3 day) was 0.55% and the “ERYTHROCYTE COUNT” value (72 h, time 3 day) was 6.6 x10E6/uL. For the same compound, the HEMATOCRIT (72 h, time 3 day) was 43.77%, the HEMOGLOBIN (72 h, time 3 day) was 14.12 G/DL and the “LEUKOCYTE COUNT” value (72 h, time 3 day) was 10.15 x10E3/uL. The LYMPHOCYTE (72 h, time 3 day) was 87.95%, the “MEAN CORPUSCULAR HEMOGLOBIN” value (72 h, time 3 day) was 21.4 pg and the “MEAN CORPUSCULAR HEMOGLOBIN CONCENTRATION” value (72 h, time 3 day) was 32.23 G/DL. The “MEAN CORPUSCULAR VOLUME” value (72 h, time 3 day) was 66.33 fL, the MONOCYTE (72 h, time 3 day) was 1.7% and the NEUTROPHIL (72 h, time 3 day) was 8.05%. The “PLATELET COUNT” value (72 h, time 3 day) was 1122 x10E3/uL, the “ALANINE AMINOTRANSFERASE” value (72 h, time 3 day) was 49.33 u/L and the ALBUMIN (72 h, time 3 day) was 4.08 G/DL. The “ALKALINE PHOSPHATASE” value (72 h, time 3 day) was 565 u/L, the “ASPARTATE AMINOTRANSFERASE” value (72 h, time 3 day) was 81.5 u/L and the “BLOOD UREA NITROGEN” value (72 h, time 3 day) was 14.33 mg/dL. For the same compound, the “CARBON DIOXIDE” value (72 h, time 3 day) was 27.17 mmol/L, the CHLORIDE (72 h, time 3 day) was 106.83 MEQ/L and the CHOLESTEROL (72 h, time 3 day) was 74.83 mg/dL. The “CREATINE PHOSPHOKINASE” value (72 h, time 3 day) was 342.33 u/L, the CREATININE (72 h, time 3 day) was 0.4 mg/dL and the GLUCOSE (72 h, time 3 day) was 169.5 mg/dL. The “LACTATE DEHYDROGENASE” value (72 h, time 3 day) was 165.17 u/L, the LIPASE (72 h, time 3 day) was 13.67 u/L and the PHOSPHORUS (72 h, time 3 day) was 12.42 mg/dL. The POTASSIUM (72 h, time 3 day) was 6.7 MEQ/L, the SODIUM (72 h, time 3 day) was 151.17 MEQ/L and the “TOTAL BILIRUBIN” value (72 h, time 3 day) was 0.4 mg/dL. For the same compound, the “TOTAL PROTEIN” value (72 h, time 3 day) was 6.13 G/DL, the “URIC ACID” value (72 h, time 3 day) was 1.62 mg/dL and the BASOPHIL (120 h, time 5 day) was 0.87%. The EOSINOPHIL (120 h, time 5 day) was 0.53%, the “ERYTHROCYTE COUNT” value (120 h, time 5 day) was 6.86 x10E6/uL and the HEMATOCRIT (120 h, time 5 day) was 45.15%. For the same compound, the HEMOGLOBIN (120 h, time 5 day) was 14.42 G/DL, the “LEUKOCYTE COUNT” value (120 h, time 5 day) was 12.67 x10E3/uL and the LYMPHOCYTE (120 h, time 5 day) was 87.1%. For the same compound, the “MEAN CORPUSCULAR HEMOGLOBIN” value (120 h, time 5 day) was 21.05 pg, the “MEAN CORPUSCULAR HEMOGLOBIN CONCENTRATION” value (120 h, time 5 day) was 32 G/DL and the “MEAN CORPUSCULAR VOLUME” value (120 h, time 5 day) was 65.75 fL. The MONOCYTE (120 h, time 5 day) was 1.9%, the NEUTROPHIL (120 h, time 5 day) was 8.25% and the “PLATELET COUNT” value (120 h, time 5 day) was 1111 x10E3/uL. For the same compound, the “ALANINE AMINOTRANSFERASE” value (120 h, time 5 day) was 46.17 u/L, the ALBUMIN (120 h, time 5 day) was 4.15 G/DL and the “ALKALINE PHOSPHATASE” value (120 h, time 5 day) was 447.17 u/L. For the same compound, the “ASPARTATE AMINOTRANSFERASE” value (120 h, time 5 day) was 65.67 u/L, the “BLOOD UREA NITROGEN” value (120 h, time 5 day) was 13.17 mg/dL and the “CARBON DIOXIDE” value (120 h, time 5 day) was 29 mmol/L. The CHLORIDE (120 h, time 5 day) was 104.5 MEQ/L, the CHOLESTEROL (120 h, time 5 day) was 72 mg/dL and the “CREATINE PHOSPHOKINASE” value (120 h, time 5 day) was 368.5 u/L. For the same compound, the CREATININE (120 h, time 5 day) was 0.3 mg/dL, the GLUCOSE (120 h, time 5 day) was 162.83 mg/dL and the “LACTATE DEHYDROGENASE” value (120 h, time 5 day) was 99.33 u/L. For the same compound, the LIPASE (120 h, time 5 day) was 12.67 u/L, the PHOSPHORUS (120 h, time 5 day) was 12.65 mg/dL and the POTASSIUM (120 h, time 5 day) was 6.52 MEQ/L. For the same compound, the SODIUM (120 h, time 5 day) was 148.67 MEQ/L, the “TOTAL BILIRUBIN” value (120 h, time 5 day) was 0.38 mg/dL and the “TOTAL PROTEIN” value (120 h, time 5 day) was 6.15 G/DL. For the same compound, the “URIC ACID” value (120 h, time 5 day) was 1.9 mg/dL, the BASOPHIL (time 14 day) was 0.58% and the EOSINOPHIL (time 14 day) was 0.45%. The “ERYTHROCYTE COUNT” value (time 14 day) was 7.51 x10E6/uL, the HEMATOCRIT (time 14 day) was 46.87% and the HEMOGLOBIN (time 14 day) was 15.2 G/DL. The “LEUKOCYTE COUNT” value (time 14 day) was 14.2 x10E3/uL, the LYMPHOCYTE (time 14 day) was 80.78% and the “MEAN CORPUSCULAR HEMOGLOBIN” value (time 14 day) was 20.25 pg. The “MEAN CORPUSCULAR HEMOGLOBIN CONCENTRATION” value (time 14 day) was 32.42 G/DL, the “MEAN CORPUSCULAR VOLUME” value (time 14 day) was 62.45 fL and the MONOCYTE (time 14 day) was 1.95%. For the same compound, the NEUTROPHIL (time 14 day) was 13.97%, the “PLATELET COUNT” value (time 14 day) was 1115.17 x10E3/uL and the “ALANINE AMINOTRANSFERASE” value (time 14 day) was 32.5 u/L. For the same compound, the ALBUMIN (time 14 day) was 4.22 G/DL, the “ALKALINE PHOSPHATASE” value (time 14 day) was 349.5 u/L and the “ASPARTATE AMINOTRANSFERASE” value (time 14 day) was 59.67 u/L. The “BLOOD UREA NITROGEN” value (time 14 day) was 14.83 mg/dL, the “CARBON DIOXIDE” value (time 14 day) was 30.33 mmol/L and the CHLORIDE (time 14 day) was 102.17 MEQ/L. The CHOLESTEROL (time 14 day) was 76 mg/dL, the “CREATINE PHOSPHOKINASE” value (time 14 day) was 163.17 u/L and the CREATININE (time 14 day) was 0.37 mg/dL. For the same compound, the GLUCOSE (time 14 day) was 157.33 mg/dL, the “LACTATE DEHYDROGENASE” value (time 14 day) was 93 u/L and the LIPASE (time 14 day) was 10.4 u/L. For the same compound, the PHOSPHORUS (time 14 day) was 11.93 mg/dL, the POTASSIUM (time 14 day) was 6.55 MEQ/L and the SODIUM (time 14 day) was 147.5 MEQ/L. For the same compound, the “TOTAL BILIRUBIN” value (time 14 day) was 0.4 mg/dL, the “TOTAL PROTEIN” value (time 14 day) was 6.45 G/DL and the “URIC ACID” value (time 14 day) was 0.7 mg/dL.
